The values below come from publication PMC10133546, “Simultaneous determination of multiple components in rat plasma by UHPLC-sMRM for pharmacokinetic studies after oral administration of Qingjin Yiqi Granules” (Frontiers in Pharmacology, 2023).

Series [1] can be described thus: Stability of the working solution (4°C for 1 month). It counts as physicochemical.
Procedure: (§1) The stability of analytes in plasma was evaluated by analyzing 4 QC samples (n = 6). The stability was included auto-sampler stability (keeping the sample in auto-sampler for 24 h), three times of freeze-thaw cycles stability (freezing cycle at −80°C, thawing cycle at room temperature), room temperature stability (storing samples at room temperature for 24 h), long-term stability (storing samples at −80°C for 1 month). […] Accompanying curve was established when testing the sample, calculate and compare the ratio of the actual measured concentration to the theoretical concentration, expressed in accuracy and RSD.
Series [2] in a line: Stability of analytes in rat plasma (auto-sampler, freeze-thaw, room temperature, long-term). The conditions noted are these: for Autosampler for 24 h Accuracy (%): autosampler 24 h; for Room temperature for 24 h Accuracy (%): room temperature 24 h; for Freeze thaw cycles Accuracy (%): three freeze-thaw cycles.
Procedure: as §1
[3] abbreviates: −80°C for 1 month, concentration 100 ng/mL.

Each structure is given as a SMILES string.

Turning to `COc1c2c(cc3oc(CO)cc(=O)c13)O[C@H](C(C)(C)O)C2` [cimifugin], the “Working solution Accuracy (%)” value stood at 90.5% in series [1] (1.56 ng/mL), 100.0% in series [1] (12.5 ng/mL) and 86.7% in series [1] (500 ng/mL). Besides, the “Autosampler for 24 h Accuracy (%)” value in series [2] (1.56 ng/mL) came out at 102.0%; in series [2] (12.5 ng/mL), 91.1%; in series [2] (100 ng/mL), 100.0%; in series [2] (500 ng/mL) it was 102.0%. Besides, the figures for the “Room temperature for 24 h Accuracy (%)” value in series [2] (1.56 ng/mL), in series [2] (100 ng/mL) and in series [2] (500 ng/mL) were 92.4%, 98.0% and 98.6%, respectively. The “Freeze thaw cycles Accuracy (%)” value is 84.5% in series [2] (1.56 ng/mL), 92.0% in series [2] (12.5 ng/mL), 95.7% in series [2] (100 ng/mL) and 93.2% in series [2] (500 ng/mL). Besides, the “−80°C for 1month Accuracy (%)” value in series [2] (1.56 ng/mL, −80°C 1 month) is given as 83.9%; in series [2] (12.5 ng/mL, −80°C 1 month), 96.3%; in series [2] (100 ng/mL, −80°C 1 month), 99.6%; in series [2] (500 ng/mL, −80°C 1 month), 95.2%.

Consider `CC(=O)O[C@H]1[C@H](O[C@H]2CC[C@]34C[C@]35CC[C@]3(C)[C@@H]([C@@]6(C)CC[C@@H](C(C)(C)O)O6)[C@@H](O)C[C@@]3(C)[C@@H]5C[C@H](O[C@@H]3O[C@H](CO)[C@@H](O)[C@H](O)[C@H]3O)[C@H]4C2(C)C)OC[C@@H](O)[C@@H]1O` [astragaloside II(IS)], for which the “Working solution Accuracy (%)” value in series [1] (concentration 100 ng/mL) is 96.7%. For the same compound, in series [2] (concentration 100 ng/mL), the “Autosampler for 24 h Accuracy (%)” value was 105.0%. In addition, the “−80°C for 1month Accuracy (%)” value in series [2] (setting [3]) came to 115.0%.

Consider `O=c1cc(-c2ccc(O)cc2)oc2c([C@@H]3O[C@H](CO)[C@@H](O)[C@H](O)[C@H]3O)c(O)cc(O)c12` [vitexin], for which the “Working solution Accuracy (%)” value in series [1] (1.56 ng/mL) turned out to be 95.6%; in series [1] (12.5 ng/mL), 88.3%; in series [1] (100 ng/mL), 89.9%; in series [1] (500 ng/mL), 106.0%. Further, the “Autosampler for 24 h Accuracy (%)” value in series [2] (1.56 ng/mL) was determined as 95.0%; in series [2] (12.5 ng/mL), 93.5%; in series [2] (100 ng/mL), 93.2%; in series [2] (500 ng/mL), 92.4%. For the same compound, the “Room temperature for 24 h Accuracy (%)” value in series [2] (1.56 ng/mL) stood at 92.0%; in series [2] (12.5 ng/mL), 105.0%; in series [2] (100 ng/mL), 88.3%; in series [2] (500 ng/mL), 107.0%. For the same compound, the “Freeze thaw cycles Accuracy (%)” value in series [2] (1.56 ng/mL) is reported as 103.0%; in series [2] (12.5 ng/mL), 92.0%; in series [2] (100 ng/mL) it was 85.5%; in series [2] (500 ng/mL) it was 108.0%. In addition, the “−80°C for 1month Accuracy (%)” value is recorded as 90.4% in series [2] (1.56 ng/mL, −80°C 1 month); 106.0% in series [2] (12.5 ng/mL, −80°C 1 month); 93.2% in series [2] (100 ng/mL, −80°C 1 month); 92.6% in series [2] (500 ng/mL, −80°C 1 month).

With `COc1c2ccoc2c(OC)c2oc(=O)ccc12` [isopimpinellin (IS)], the “Working solution Accuracy (%)” value in series [1] (concentration 100 ng/mL) is on record as 93.5%. Besides, in series [2] (concentration 100 ng/mL), the “Autosampler for 24 h Accuracy (%)” value was found to be 98.6%, the “Room temperature for 24 h Accuracy (%)” value worked out at 96.5% and the “Freeze thaw cycles Accuracy (%)” value worked out at 88.2%. In addition, the “−80°C for 1month Accuracy (%)” value in series [2] (setting [3]) stood at 109.0%.

For `C[C@@]12C[C@@]3(O)O[C@@H](O1)[C@]1(COC(=O)c4ccccc4)[C@H]3C[C@@]12O[C@@H]1O[C@H](CO)[C@@H](O)[C@H](O)[C@H]1O` [paeoniflorin], the “Working solution Accuracy (%)” value in series [1] (12.5 ng/mL) amounted to 106.0%; in series [1] (500 ng/mL) it was 93.2%. For the same compound, the “Autosampler for 24 h Accuracy (%)” value in series [2] (12.5 ng/mL) is on record as 86.8%; in series [2] (50 ng/mL), 97.6%; in series [2] (100 ng/mL) it was 111.0%; in series [2] (500 ng/mL), 92.0%. For the same compound, the “Room temperature for 24 h Accuracy (%)” value in series [2] (12.5 ng/mL) amounted to 106.0%; in series [2] (50 ng/mL), 106.0%; in series [2] (100 ng/mL), 86.8%; in series [2] (500 ng/mL), 92.2%. In addition, the “Freeze thaw cycles Accuracy (%)” value in series [2] (12.5 ng/mL) was found to be 97.6%; in series [2] (50 ng/mL), 94.1%; in series [2] (100 ng/mL), 93.4%; in series [2] (500 ng/mL) it was 93.1%. Also, the “−80°C for 1month Accuracy (%)” value in series [2] (12.5 ng/mL, −80°C 1 month) stood at 97.6%; in series [2] (50 ng/mL, −80°C 1 month), 96.4%; in series [2] (100 ng/mL, −80°C 1 month), 95.2%; in series [2] (500 ng/mL, −80°C 1 month), 95.3%.

Regarding `C[C@@H]1O[C@@H](Oc2c(-c3ccc(O)c(O)c3)oc3cc(O)cc(O)c3c2=O)[C@H](O)[C@H](O)[C@H]1O` [quercitrin], the “Working solution Accuracy (%)” value in series [1] (1.56 ng/mL) is 92.6%; in series [1] (100 ng/mL), 90.4%; in series [1] (500 ng/mL), 99.1%. In addition, the “Autosampler for 24 h Accuracy (%)” value is listed as 95.2% in series [2] (1.56 ng/mL), 94.7% in series [2] (12.5 ng/mL), 98.3% in series [2] (100 ng/mL) and 108.0% in series [2] (500 ng/mL). The “Room temperature for 24 h Accuracy (%)” value was found to be 85.2% in series [2] (1.56 ng/mL), 87.1% in series [2] (12.5 ng/mL), 99.6% in series [2] (100 ng/mL) and 98.0% in series [2] (500 ng/mL). Moreover, the “Freeze thaw cycles Accuracy (%)” value is 86.2% in series [2] (1.56 ng/mL), 90.0% in series [2] (12.5 ng/mL), 100.0% in series [2] (100 ng/mL) and 89.3% in series [2] (500 ng/mL). Besides, the “−80°C for 1month Accuracy (%)” value in series [2] (1.56 ng/mL, −80°C 1 month) amounted to 86.7%; in series [2] (12.5 ng/mL, −80°C 1 month), 97.1%; in series [2] (100 ng/mL, −80°C 1 month) it was 95.6%; in series [2] (500 ng/mL, −80°C 1 month) it was 96.0%.

Regarding `COc1ccc(-c2oc3c(CC=C(C)C)c(O[C@@H]4O[C@H](CO)[C@@H](O)[C@H](O)[C@H]4O)cc(O)c3c(=O)c2O[C@@H]2O[C@@H](C)[C@H](O)[C@@H](O)[C@H]2O)cc1` [icariin (IS)], in series [1] (concentration 100 ng/mL), the “Working solution Accuracy (%)” value came to 94.8%.

For the compound `O.Oc1cc(O)c2c(c1)O[C@H](c1ccc(O)c(O)c1)[C@@H](O)C2` [catechin], the “Working solution Accuracy (%)” value turned out to be 91.6% in series [1] (12.5 ng/mL), 106.0% in series [1] (50 ng/mL), 97.4% in series [1] (100 ng/mL) and 100.0% in series [1] (500 ng/mL).

For the compound `O=c1cc(-c2ccccc2)oc2cc(O)c(O)c(O)c12` [baicalein], the “Autosampler for 24 h Accuracy (%)” value amounted to 97.0% in series [2] (12.5 ng/mL), 92.3% in series [2] (50 ng/mL), 92.4% in series [2] (100 ng/mL) and 93.2% in series [2] (500 ng/mL). Also, the results for the “Room temperature for 24 h Accuracy (%)” value in series [2] (12.5 ng/mL), in series [2] (50 ng/mL) and in series [2] (500 ng/mL) were 91.4%, 85.5% and 91.0%, respectively. Moreover, the “Freeze thaw cycles Accuracy (%)” value in series [2] (12.5 ng/mL) was 97.4%; in series [2] (100 ng/mL), 98.2%; in series [2] (500 ng/mL) it was 94.0%. Also, the “−80°C for 1month Accuracy (%)” value in series [2] (12.5 ng/mL, −80°C 1 month) is listed as 99.7%; in series [2] (50 ng/mL, −80°C 1 month) it was 90.6%; in series [2] (100 ng/mL, −80°C 1 month), 95.5%; in series [2] (500 ng/mL, −80°C 1 month), 104.0%.
